In PubChem BioAssay AID1963869 (Molecular Pharmacology Branch, DTP, NCI, 2024):

Test system: KRAS patient-derived spheroids with HUVEC/MSC, viability
Assay: Anticancer human tumor 323965-272-R-J2-PDC patient-derived pancreatic carcinoma cell line growth inhibition [KRAS2]
Details: for IC50: curve of first compound; for viability, T/C: stronger effect = lower value
Source text: Multicellular complex tumor spheroid response to RAS pathway inhibitors in combination with a targeted agents in patient-derived cell lines with oncogenic KRAS variants from multiple cancer types
A high-throughput screen of multi-cell type tumor spheroids was designed to identify active combinations of targeted small molecules and KRAS pathway inhibitors. Complex spheroids include a stromal component modeled by human endothelial cells (HUVEC) and fibroblasts modeled by human mesenchymal stem cells (MSCs). The concentration ranges selected for each drug and investigational agent were based upon clinically achievable concentrations if the clinical Cmax of the agent was known.
Compounds. The drugs and investigational agents: BI-3406 (NSC825286), BAY-293 (NSC824723), batoprotafib (TNO155; NSC825523), sotorasib (AMG 510; NSC818433), MRTX1257 (NSC819558), elimusertib (BAY 1895344; NSC800525), molibresib (GSK525762; NSC774829), temuterkib (LY3214996; NSC803410), venetoclax (NSC766270), alisertib (NSC759677), olaparib (NSC753686), talazoparib (NSC767125), erdafitinib (NSC781556), ipatasertib (NSC767898), cabozantinib (NSC761068), nintedanib (NSC756659), abemaciclib (NSC768073), docetaxel (NSC628503), trametinib (NSC758246), and sapanisertib (NSC764658) were obtained from the National Cancer Institute (NCI) Developmental Therapeutics Program Chemical Repository. The FDA-approved anticancer drug set is available from the Developmental Therapeutics Program. […] The stock solutions were prepared in dimethyl sulfoxide (DMSO, Sigma-Aldrich, St. Louis, MO, cat. D2650) at 800-fold the tested concentration and stored at -70 degrees C prior to their use. All drugs and investigational agents were tested over a range starting from a high concentration at or near the clinical Cmax and decreasing in half-log increments. If the clinical Cmax for an agent had not been determined, the highest concentration tested was 10 microM.
Cell Culture. All cells were maintained in an incubator at 37 degrees C and 5% CO2 with 95% humidity. The PDC lines were cultured according to standard operating procedures established by the NCI PDMR (https://pdmr.cancer.gov/sops/default.htm). Briefly, all PDCs were thawed and cultured in Matrigel-coated flasks prepared with a working solution of 1X Ham's F-12 nutrient mix, without supplementation (Invitrogen, Waltham, MA, cat. 11765054), 100 U/mL penicillin-streptomycin (Invitrogen, cat. 15140122), and 2.5% Matrigel (Corning Inc., Corning, NY, cat. 354248) for the first three passages. All PDCs were cultured in complete DMEM/F-12 media containing advanced DMEM/F-12 (Invitrogen, cat. 12634028), 4.9% defined fetal bovine serum, heat inactivated (HyClone Laboratories Inc., Logan, UT, cat. SH30070.03HI), 389 ng/mL hydrocortisone (Sigma-Aldrich, cat. H4001), 9.7 ng/mL human EGF recombinant protein (Invitrogen, cat. PHG0313), 23.4 microg/mL adenine (Sigma-Aldrich, cat. A2786), 97.3 U/mL penicillin-streptomycin (Invitrogen, cat. 15140122), 1.9 mM L-glutamine (Invitrogen, cat. 25030081), and 9.7 microM Y-27632 dihydrochloride (Tocris Bioscience, Bristol, United Kingdom, cat. 1254). The PDCs were cultured in complete DMEM/F12 media without 9.7 microM Y-27632 dihydrochloride for at least two passages prior to the screen. The established cell line HOP-62 was cultured in RPMI 1640 medium, HEPES (Invitrogen, cat. 22400105) with 10% defined fetal bovine serum (HyClone Laboratories Inc., cat. SH30070.03) and 2 mM L-glutamine (Invitrogen, cat. 25030081). The pooled donor HUVEC were cultured in endothelial cell growth medium 2 (PromoCell, Heidelberg, Germany, cat. C-22011) and the hMSC were cultured in mesenchymal stem cell growth medium 2 (PromoCell, cat. C-28009). For all experiments, HUVEC and hMSC were used at passages </=5, while the malignant cell lines were used at passages </=15. […]

[1] = second compound 0.1 µM, first compound 0.0316 µM
[2] = second compound 0.1 µM, first compound 0.1 µM
[3] = second compound 0.1 µM, first compound 0.316 µM
[4] = second compound 0.1 µM, first compound 1 µM
[5] = second compound 0.1 µM, first compound 3.16 µM
[6] = second compound 0.1 µM, first compound 10 µM
[7] = second compound 0.316 µM, first compound 0.0316 µM
[8] = second compound 0.316 µM, first compound 0.1 µM
[9] = second compound 0.316 µM, first compound 0.316 µM
[10] = second compound 0.316 µM, first compound 1 µM
[11] = second compound 0.316 µM, first compound 3.16 µM
[12] = second compound 0.316 µM, first compound 10 µM
[13] = second compound 1 µM, first compound 0.0316 µM
[14] = second compound 1 µM, first compound 0.1 µM
[15] = second compound 1 µM, first compound 0.316 µM
[16] = second compound 1 µM, first compound 1 µM
[17] = second compound 1 µM, first compound 3.16 µM
[18] = second compound 1 µM, first compound 10 µM
[19] = second compound 3.16 µM, first compound 0.0316 µM
[20] = second compound 3.16 µM, first compound 0.1 µM
[21] = second compound 3.16 µM, first compound 0.316 µM
[22] = second compound 3.16 µM, first compound 1 µM
[23] = second compound 3.16 µM, first compound 3.16 µM
[24] = second compound 3.16 µM, first compound 10 µM
[25] = second compound 10 µM, first compound 0.0316 µM
[26] = second compound 10 µM, first compound 0.1 µM
[27] = second compound 10 µM, first compound 0.316 µM
[28] = second compound 10 µM, first compound 1 µM
[29] = second compound 10 µM, first compound 3.16 µM
[30] = second compound 10 µM, first compound 10 µM
[31] = second compound 0.1 µM, first compound 0.000316 µM
[32] = second compound 0.1 µM, first compound 0.001 µM
[33] = second compound 0.1 µM, first compound 0.00316 µM
[34] = second compound 0.1 µM, first compound 0.01 µM
[35] = second compound 0.316 µM, first compound 0.000316 µM
[36] = second compound 0.316 µM, first compound 0.001 µM
[37] = second compound 0.316 µM, first compound 0.00316 µM
[38] = second compound 0.316 µM, first compound 0.01 µM
[39] = second compound 1 µM, first compound 0.000316 µM
[40] = second compound 1 µM, first compound 0.001 µM
[41] = second compound 1 µM, first compound 0.00316 µM
[42] = second compound 1 µM, first compound 0.01 µM
[43] = second compound 3.16 µM, first compound 0.000316 µM
[44] = second compound 3.16 µM, first compound 0.001 µM
[45] = second compound 3.16 µM, first compound 0.00316 µM
[46] = second compound 3.16 µM, first compound 0.01 µM
[47] = second compound 10 µM, first compound 0.000316 µM
[48] = second compound 10 µM, first compound 0.001 µM
[49] = second compound 10 µM, first compound 0.00316 µM
[50] = second compound 10 µM, first compound 0.01 µM
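Further: spheroids exposed to agents for 7 days.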
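Wherever viability, T/C is given: 100% = DMSO vehicle control viability.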

Row | SMILES | IC50 (second compound 0.1 µM) [µM] | IC50 (second compound 0.316 µM) [µM] | IC50 (second compound 1 µM) [µM] | IC50 (second compound 3.16 µM) [µM] | IC50 (second compound 10 µM) [µM] | viability, T/C [1] [%] | viability, T/C [2] [%] | viability, T/C [3] [%] | viability, T/C [4] [%] | viability, T/C [5] [%] | viability, T/C [6] [%] | viability, T/C [7] [%] | viability, T/C [8] [%] | viability, T/C [9] [%] | viability, T/C [13] [%] | viability, T/C [14] [%] | viability, T/C [19] [%] | viability, T/C [20] [%] | viability, T/C [25] [%] | viability, T/C [26] [%] | further results
1 | COc1cc(Nc2ncc3c(n2)-c2ccc(Cl)cc2C(c2c(F)cccc2OC)=NC3)ccc1C(=O)O + CNCc1ccccc1-c1csc(C(C)Nc2nc(C)nc3cc(OC)c(OC)cc23)c1 | 0.128 | 0.0926 | 0.0964 | > 10 | < 0.0316 | 80.2 | 52.9 | 32 | 39.3 | 55.5 | 63.5 | 78.8 | 50.2 | 33.6 | 85.6 | 51 | 88.2 | 36.9 | 0.29 | 0.17 | viability, T/C [10]: 35.6%; viability, T/C [11]: 52.3%; viability, T/C [12]: 55.2%; viability, T/C [15]: 31.9%; viability, T/C [16]: 37.9%; viability, T/C [17]: 51.1%; viability, T/C [18]: 60%; viability, T/C [21]: 17.9%; viability, T/C [22]: 39.5%; viability, T/C [23]: 63.3%; viability, T/C [24]: 64.6%; viability, T/C [27]: 0.16%; viability, T/C [28]: 0.2%; viability, T/C [29]: 0.35%; viability, T/C [30]: 0.26%
2 | O=C(c1cc(Cc2n[nH]c(=O)c3ccccc23)ccc1F)N1CCN(C(=O)C2CC2)CC1 + CNCc1ccccc1-c1csc(C(C)Nc2nc(C)nc3cc(OC)c(OC)cc23)c1 | > 10 | > 10 | > 10 | 8.84 | < 0.0316 | 98.7 | 93.1 | 97.8 | 93.6 | 89 | 57.1 | 94.9 | 91 | 98.4 | 92 | 93.5 | 102 | 102 | 6.59 | 0.4 | viability, T/C [10]: 89.7%; viability, T/C [11]: 86.2%; viability, T/C [12]: 51.5%; viability, T/C [15]: 84.5%; viability, T/C [16]: 86.3%; viability, T/C [17]: 83.3%; viability, T/C [18]: 52.9%; viability, T/C [21]: 96.4%; viability, T/C [22]: 98.8%; viability, T/C [23]: 92.5%; viability, T/C [24]: 44.8%; viability, T/C [27]: 2.23%; viability, T/C [28]: 0.39%; viability, T/C [29]: 0.34%; viability, T/C [30]: 0.82%
3 | Cn1ncnc1[C@H]1c2n[nH]c(=O)c3cc(F)cc(c23)N[C@@H]1c1ccc(F)cc1 + C=CC(=O)N1CCN(c2nc(=O)n(-c3c(C)ccnc3C(C)C)c3nc(-c4c(O)cccc4F)c(F)cc23)C(C)C1 | > 0.1 | > 0.1 | > 0.1 | > 0.1 | 0.0237 | 58.9 | 55.7 |  |  |  |  | 64 | 57.4 |  | 63.9 | 57 | 67.3 | 54.6 | 50.9 | 41.2 | viability, T/C [31]: 59.7%; viability, T/C [32]: 65.8%; viability, T/C [33]: 58.8%; viability, T/C [34]: 57.8%; viability, T/C [35]: 63%; viability, T/C [36]: 63.2%; viability, T/C [37]: 61.2%; viability, T/C [38]: 55%; viability, T/C [39]: 72.5%; viability, T/C [40]: 64.2%; viability, T/C [41]: 68.3%; viability, T/C [42]: 58.7%; viability, T/C [43]: 63.6%; viability, T/C [44]: 65.6%; viability, T/C [45]: 63.5%; viability, T/C [46]: 64.7%; viability, T/C [47]: 58.8%; viability, T/C [48]: 62.7%; viability, T/C [49]: 57.4%; viability, T/C [50]: 50.4%
4 | Cn1ncnc1[C@H]1c2n[nH]c(=O)c3cc(F)cc(c23)N[C@@H]1c1ccc(F)cc1 + CC1OCC2(CCN(c3cnc(Sc4ccnc(N)c4Cl)c(N)n3)CC2)C1N | > 0.1 | 0.0359 | < 0.000316 | < 0.000316 | < 0.000316 | 76.2 | 62 |  |  |  |  | 51.2 | 45 |  | 42 | 38 | 24.4 | 21 | 18.7 | 17.2 | viability, T/C [31]: 80.9%; viability, T/C [32]: 82.9%; viability, T/C [33]: 82.9%; viability, T/C [34]: 79.7%; viability, T/C [35]: 57.5%; viability, T/C [36]: 62.5%; viability, T/C [37]: 55.2%; viability, T/C [38]: 53.6%; viability, T/C [39]: 44%; viability, T/C [40]: 47.5%; viability, T/C [41]: 45.7%; viability, T/C [42]: 43.7%; viability, T/C [43]: 34.4%; viability, T/C [44]: 32%; viability, T/C [45]: 30.1%; viability, T/C [46]: 28.2%; viability, T/C [47]: 29.3%; viability, T/C [48]: 23.2%; viability, T/C [49]: 20.8%; viability, T/C [50]: 20.1%
